From patent US9102688B2, “Sulfonaminoquinoline hepcidin antagonists” (Vifor (International) AG, priority 2011, dated 2015) come the findings set out here.

By IC50 is commonly meant the point on the concentration scale where inhibition reaches its midpoint. Low values mean greater potency in that assay, high ones weaker potency in that assay.

The assay concerns the target T1, human ferroportin (Homo sapiens, UniProt Q9NP59).
T1 construct: expressed in transfected cells
T1 sequence (Q9NP59 1-571): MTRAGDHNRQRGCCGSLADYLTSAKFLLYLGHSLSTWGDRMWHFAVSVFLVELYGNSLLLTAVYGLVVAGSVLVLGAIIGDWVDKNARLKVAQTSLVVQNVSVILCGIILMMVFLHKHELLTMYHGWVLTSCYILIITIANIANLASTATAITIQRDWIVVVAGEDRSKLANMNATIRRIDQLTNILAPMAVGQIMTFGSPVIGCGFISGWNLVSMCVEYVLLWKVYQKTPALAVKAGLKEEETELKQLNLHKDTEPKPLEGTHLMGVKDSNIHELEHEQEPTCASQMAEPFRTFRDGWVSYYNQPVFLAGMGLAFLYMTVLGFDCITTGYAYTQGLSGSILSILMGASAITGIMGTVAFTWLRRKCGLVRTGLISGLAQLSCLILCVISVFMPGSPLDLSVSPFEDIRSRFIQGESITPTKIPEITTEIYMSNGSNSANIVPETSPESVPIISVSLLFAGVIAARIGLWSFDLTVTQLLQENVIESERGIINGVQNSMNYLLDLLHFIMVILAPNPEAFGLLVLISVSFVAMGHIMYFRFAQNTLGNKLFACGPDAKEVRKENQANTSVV
The assay can be described thus: ferroportin internalization assay (inhibition of hepcidin-induced internalization of Fpn). It counts as cell-based. As to conditions: MDCK-FPN-HaloTag cells, 100 nM hepcidin, overnight incubation; concentration range from 0.04 to 40 μM. The gist of the method: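 MDCK cells stably expressing human ferroportin–HaloTag were labelled with TMR ligand, then incubated overnight at 37 °C with compound plus 100 nM hepcidin (final). After fixation and nuclear staining, confocal imaging quantified membrane Fpn fluorescence to measure blocking of hepcidin-induced internalization.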
The compound `CN1C(c2ccc(OC(F)(F)F)cc2)c2ccc3cccnc3c2NS1(=O)=O` (stereo not drawn) [Example 393, 2-Methyl-1-(4-trifluoromethoxy-phenyl)-1,4-dihydro-2H-3-thia-2,4,5-triaza-phenanthrene 3,3-dioxide] yielded an IC50 of 1150 nM.

`COc1ccc(C2c3ccc4cccnc4c3NS(=O)(=O)N2C)c(OC)c1` (stereo not drawn) [Example 394, 1-(2,4-Dimethoxy-phenyl)-2-methyl-1,4-dihydro-2H-3-thia-2,4,5-triaza-phenanthrene 3,3-dioxide] had an IC50 of 1070 nM.

For the compound `Cc1cc(F)ccc1C1c2ccc3cccnc3c2NS(=O)(=O)N1C` (stereo not drawn) [Example 395, 1-(4-Fluoro-2-methyl-phenyl)-2-methyl-1,4-dihydro-2H-3-thia-2,4,5-triaza-phenanthrene 3,3-dioxide], the midpoint of inhibition, the IC50, lay at 1500 nM.

Regarding `COc1ccc(C2c3ccc4cccnc4c3NS(=O)(=O)N2C)cc1F` (stereo not drawn) [Example 396, 1-(3-Fluoro-4-methoxy-phenyl)-2-methyl-1,4-dihydro-2H-3-thia-2,4,5-triaza-phenanthrene 3,3-dioxide], the IC50 turned out to be 1480 nM.

As to `O=S1(=O)Nc2c(ccc3cccnc23)C(c2ccc(F)cc2)N1` (stereo not drawn) [Example 398, 1-(4-Fluoro-phenyl)-1,4-dihydro-2H-3-thia-2,4,5-triaza-phenanthrene 3,3-dioxide], the 50% inhibitory concentration (IC50) came out at 2780 nM.

In the case of `CN1C(c2ccc(F)cc2)c2cc(Cl)c3cccnc3c2NS1(=O)=O` (stereo not drawn) [Example 401, 9-Chloro-1-(4-fluoro-phenyl)-2-methyl-1,4-dihydro-2H-3-thia-2,4,5-triaza-phenanthrene 3,3-dioxide], the IC50 stood at 12500 nM.

With `CC(=O)c1cc2c(c3ncccc13)NS(=O)(=O)N(C)C2c1ccc(F)cc1` (stereo not drawn) [Example 402, 1-[1-(4-Fluoro-phenyl)-2-methyl-3,3-dioxo-1,2,3,4-tetrahydro-3λ*6*-thia-2,4,5-triaza-phenanthren-9-yl]-ethanone], the IC50 came out at 250 nM.

As for `CC(O)c1cc2c(c3ncccc13)NS(=O)(=O)N(C)C2c1ccc(F)cc1` (stereo not drawn) [Example 403, 1-[1-(4-Fluoro-phenyl)-2-methyl-3,3-dioxo-1,2,3,4-tetrahydro-3λ*6*-thia-2,4,5-triaza-phenanthren-9-yl]-ethanol], the IC50 was 2370 nM.

`CN1Cc2ccc3cccnc3c2NS1(=O)=O` [Example 405, 2-Methyl-1,4-dihydro-2H-3-thia-2,4,5-triaza-phenanthrene 3,3-dioxide] had an IC50 of 6500 nM.

`CCC1c2ccc3cccnc3c2NS(=O)(=O)N1C` (stereo not drawn) [Example 412, 1-Ethyl-2-methyl-1,4-dihydro-2H-3-thia-2,4,5-triaza-phenanthrene 3,3-dioxide] showed an IC50 of 2220 nM.

As to `CC1c2ccc3cccnc3c2NS(=O)(=O)N1C` (stereo not drawn) [Example 413, 1,2-Dimethyl-1,4-dihydro-2H-3-thia-2,4,5-triaza-phenanthrene 3,3-dioxide], the IC50 is 4690 nM.

In turn, `CN1C(c2ccc(F)c(C(=O)O)c2)c2ccc3cccnc3c2NS1(=O)=O` (stereo not drawn) [Example 424, 2-Fluoro-5-(2-methyl-3,3-dioxo-1,2,3,4-tetrahydro-3λ*6*-thia-2,4,5-triaza-phenanthren-1-yl)-benzoic acid] came in with an IC50 of 5430 nM.

Compound `CN(C)CCNCc1cc(C2c3ccc4cccnc4c3NS(=O)(=O)N2C)ccc1F` (stereo not drawn) [Example 425, N′-[2-Fluoro-5-(2-methyl-3,3-dioxo-1,2,3,4-tetrahydro-3λ*6*-thia-2,4,5-triaza-phenanthren-1-yl)-benzyl]-N,N-dimethyl-ethane-1,2-diamine] registered a 50% inhibitory concentration (IC50) of 7410 nM.

Compound `CN1C(c2ccc(F)c(CNCCN3CCOCC3)c2)c2ccc3cccnc3c2NS1(=O)=O` (stereo not drawn) [Example 426, [2-Fluoro-5-(2-methyl-3,3-dioxo-1,2,3,4-tetrahydro-3λ*6*-thia-2,4,5-triaza-phenanthren-1-yl)-benzyl]-(2-morpholin-4-yl-ethyl)-amine] displayed an IC50 of 8560 nM.

In turn, `CN1C(c2ccc(F)c(CN3CCNCC3)c2)c2ccc3cccnc3c2NS1(=O)=O` (stereo not drawn) [Example 427, 1-(4-Fluoro-3-piperazin-1-ylmethyl-phenyl)-2-methyl-1,4-dihydro-2H-3-thia-2,4,5-triaza-phenanthrene 3,3-dioxide] gave an IC50 of 4490 nM.

With `CN1C(c2ccc(F)c(C(=O)N3CCOCC3)c2)c2ccc3cccnc3c2NS1(=O)=O` (stereo not drawn) [Example 428, [2-Fluoro-5-(2-methyl-3,3-dioxo-1,2,3,4-tetrahydro-3λ*6*-thia-2,4,5-triaza-phenanthren-1-yl)-phenyl]-morpholin-4-yl-methanone], the IC50 is 2620 nM.

`CN(C)CCNC(=O)c1cc(C2c3ccc4cccnc4c3NS(=O)(=O)N2C)ccc1F` (stereo not drawn) [Example 429, N-(2-Dimethylamino-ethyl)-2-fluoro-5-(2-methyl-3,3-dioxo-1,2,3,4-tetrahydro-3λ*6*-thia-2,4,5-triaza-phenanthren-1-yl)-benzamide]: the IC50 came out at 7460 nM.

`O=S1(=O)Nc2c(ccc3c(-n4cccn4)ccnc23)-c2ccccc21` [Example 494, 1-Pyrazol-1-yl-5H-6-thia-4,5-diaza-chrysene 6,6-dioxide] showed an IC50 of 3530 nM.

Take `CN(C)c1ccc2c(c1)-c1ccc3cccnc3c1NS2(=O)=O` [Example 502, (6,6-Dioxo-5,6-dihydro-6λ*6*-thia-4,5-diaza-chrysen-9-yl)-dimethyl-amine]: half-maximal inhibition (IC50) was put at 910 nM.

`O=S1(=O)Nc2c(cc(Cl)c3cccnc23)-c2cc(N3CCC(O)CC3)ccc21` [Example 504, 1-(12-Chloro-6,6-dioxo-5,6-dihydro-6λ*6*-thia-4,5-diaza-chrysen-9-yl)-piperidin-4-ol] came in with an IC50 of 1100 nM.

With `CCN(CC)c1ccc2c(c1)-c1cc(Cl)c3cccnc3c1NS2(=O)=O` [Example 505, (12-Chloro-6,6-dioxo-5,6-dihydro-6λ*6*-thia-4,5-diaza-chrysen-9-yl)-diethyl-amine], the IC50 was 2190 nM.

`O=S1(=O)Nc2c(ccc3cccnc23)-c2cc(N3CCC(O)C3)ccc21` (stereo not drawn) [Example 506, 1-(6,6-Dioxo-5,6-dihydro-6λ*6*-thia-4,5-diaza-chrysen-9-yl)-pyrrolidin-3-ol] yielded an IC50 of 2010 nM.

Consider `COCCNc1ccc2c(c1)-c1cc(Cl)c3cccnc3c1NS2(=O)=O` [Example 507, (12-Chloro-6,6-dioxo-5,6-dihydro-6λ*6*-thia-4,5-diaza-chrysen-9-yl)-(2-methoxy-ethyl)-amine], for which the IC50 turned out to be 1980 nM.

In turn, `O=S1(=O)Nc2c(cc(Cl)c3cccnc23)-c2cc(N3CCOCC3)ccc21` [Example 509, 12-Chloro-9-morpholin-4-yl-5H-6-thia-4,5-diaza-chrysene 6,6-dioxide] returned an IC50 of 1620 nM.

The compound `O=S1(=O)Nc2c(cc(Cl)c3cccnc23)-c2cc(NCCN3CCOCC3)ccc21` [Example 511, (12-Chloro-6,6-dioxo-5,6-dihydro-6λ*6*-thia-4,5-diaza-chrysen-9-yl)-(2-morpholin-4-yl-ethyl)-amine] yielded an IC50 of 620 nM.

In turn, `O=S1(=O)Nc2c(cc(Cl)c3cccnc23)-c2cc(NC(CO)CO)ccc21` [Example 512, 2-(12-Chloro-6,6-dioxo-5,6-dihydro-6λ*6*-thia-4,5-diaza-chrysen-9-ylamino)-propane-1,3-diol] showed an IC50 of 13400 nM.

For the compound `O=S1(=O)Nc2c(cc(Cl)c3cccnc23)-c2cc(OC3CCCC3)ccc21` [Example 514, 12-Chloro-9-cyclopentyloxy-5H-6-thia-4,5-diaza-chrysene 6,6-dioxide], the midpoint of inhibition, the IC50, lay at 420 nM.

`Nc1ccc2c(c1)-c1cc(Cl)c3cccnc3c1NS2(=O)=O` [Example 519, 12-Chloro-6,6-dioxo-5,6-dihydro-6λ*6*-thia-4,5-diaza-chrysen-9-ylamine] displayed an IC50 of 3570 nM.

The compound `CNC(=O)c1ccc2c(c1)-c1ccc3cccnc3c1NS2(=O)=O` [Example 522, 6,6-Dioxo-5,6-dihydro-6λ*6*-thia-4,5-diaza-chrysene-9-carboxylic acid methylamide] showed an IC50 of 13200 nM.

As for `CN(C)C(=O)c1ccc2c(c1)-c1cc(Cl)c3cccnc3c1NS2(=O)=O` [Example 525, 12-Chloro-6,6-dioxo-5,6-dihydro-6λ*6*-thia-4,5-diaza-chrysene-9-carboxylic acid dimethylamide], the IC50 was 4060 nM.

Compound `O=C(c1ccc2c(c1)-c1cc(Cl)c3cccnc3c1NS2(=O)=O)N1CCOCC1` [Example 527, (12-Chloro-6,6-dioxo-5,6-dihydro-6λ*6*-thia-4,5-diaza-chrysen-9-yl)-morpholin-4-yl-methanone] showed an IC50 of 2740 nM.

`COCCNC(=O)c1ccc2c(c1)-c1cc(Cl)c3cccnc3c1NS2(=O)=O` [Example 528, 12-Chloro-6,6-dioxo-5,6-dihydro-6λ*6*-thia-4,5-diaza-chrysene-9-carboxylic acid (2-methoxy-ethyl)-amide] had an IC50 of 3900 nM.

Compound `O=C(c1ccc2c(c1)-c1cc(Cl)c3cccnc3c1NS2(=O)=O)N1CCC(O)C1` (stereo not drawn) [Example 531, (12-Chloro-6,6-dioxo-5,6-dihydro-6λ*6*-thia-4,5-diaza-chrysen-9-yl)-(3-hydroxy-pyrrolidin-1-yl)-methanone] had an IC50 of 15000 nM.
